Structures can show the parent of a compound that is named as a salt.
Experiments:
[1] = target: T1, recombinant human adrenergic beta 1 receptors (Homo sapiens, UniProt P08588); experiment: Adrenergic β1 [125I]-Iodocyanopindolol binding; details: inhibition of [125I]-Iodocyanopindolol binding; read-out: β1 bind pIC50 (converted)
T1 construct: purchased Euroscreen
Method: (§1) Membranes containing recombinant human adrenergic beta 1 receptors were obtained from Euroscreen. These were diluted in Assay Buffer (50 mM HEPES, 1 mM EDTA, 120 mM NaCl, 0.1% gelatin, pH 7.4) to provide a final concentration of membranes that gave a clear window between maximum and minimum specific binding.
Assays were performed in U-bottomed 96-well polypropylene plates. 10 PL [1251]-Iodocyanopindolol (0.036 nM final concentration) and 10 μL of Compound A (10× final concentration) were added to each test well. For each assay plate 8 replicates were obtained for [^125]-Iodocyanopindolol binding in the presence of 10 μL vehicle (10% (v/v) DMSO in Assay Buffer; defining maximum binding) or 10 μL Propranolol (10 μM final concentration; defining non-specific binding (NSB)). Membranes were then added to achieve a final volume of 100 μL. […] Five washes with 250 μL wash buffer (50 mM HEPES, 1 mM EDTA, 120 mM NaCl, pH 7.4) were performed at 4° C. to remove unbound radioactivity. […] The plates were sealed (TopSeal A) and filter-bound radioactivity was measured with a scintillation counter (TopCount, Packard BioScience) using a 3-minute counting protocol.
(§2) Total specific binding (B0) was determined by subtracting the mean NSB from the mean maximum binding. […]

[2] = target: T2, recombinant human Dopamine Subtype D2s receptors (Homo sapiens, UniProt P14416); experiment: Dopamine D2 [3H]-spiperone binding; details: inhibition of [3H]-spiperone binding; read-out: D2 bind pIC50 (converted)
T2 construct: purchased Perkin Elmer
T2 sequence (P14416 1-414 isoform P14416-2): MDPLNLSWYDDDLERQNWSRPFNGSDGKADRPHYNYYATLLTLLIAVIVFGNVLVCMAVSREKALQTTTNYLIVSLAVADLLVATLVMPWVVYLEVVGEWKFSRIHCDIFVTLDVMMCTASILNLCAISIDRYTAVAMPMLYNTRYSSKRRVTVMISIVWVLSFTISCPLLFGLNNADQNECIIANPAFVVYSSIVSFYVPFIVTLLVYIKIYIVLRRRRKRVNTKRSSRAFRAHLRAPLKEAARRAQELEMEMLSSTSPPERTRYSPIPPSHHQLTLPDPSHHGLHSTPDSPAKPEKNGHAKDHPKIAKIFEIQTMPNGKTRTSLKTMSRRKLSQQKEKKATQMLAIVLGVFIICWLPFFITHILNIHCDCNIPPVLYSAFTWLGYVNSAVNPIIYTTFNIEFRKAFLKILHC
Method: as §1, with “Dopamine Subtype D2s” for “adrenergic beta 1”, “Perkin Elmer.” for “Euroscreen.”
Assays were performed in U-bottomed 96-well polypropylene plates. 30 PL [^3H]-spiperone (0.16 nM final concentration) and 30 μL of Compound A (10× final concentration) were added to each test well. For each assay plate 8 replicates were obtained for [^3H]-spiperone binding in the presence of 30 PL vehicle (10% (v/v) DMSO in Assay Buffer; defining maximum binding) or 30 μL Haloperidol (10 PM final concentration; defining non-specific binding (NSB)). Membranes were then added to achieve a final volume of 300 μL. […] Five washes with 250 μL wash buffer (50 mM HEPES, 1 mM EDTA, 120 mM NaCl, pH 7.4) were performed at 4° C. to remove unbound radioactivity. […] The plates were sealed (TopSeal A) and filter-bound radioactivity was measured with a scintillation counter (TopCount, Packard BioScience) using a 3-minute counting protocol.
as §2

[3] = tested on: methacholine-induced bronchoconstriction; experiment: Lung function in anaesthetized guinea-pigs, methacholine challenge; type: in vivo, Dunkin-Hartley guinea pig; details: for inhibition of methacholine-induced bronchoconstriction: methacholine 5 μg/kg i.v.; for increase in resistance: methacholine 5 μg/kg, vehicle 1898±211%
Method: Evaluation of Lung Function in Anaesthetized Guinea-Pigs
Male Dunkin-Hartley guinea pigs (300-600 g) were weighed and dosed with vehicle (0.05M phosphate, 0.1% Tween 80, 0.6% saline, pH 6) or compound via the intratracheal route under recoverable gaseous anaesthesia (5% halothane in oxygen). Animals were dosed with compound or vehicle two hours prior to the administration of histamine or methacholine.
Guinea pigs were anaesthetized with pentobarbitone (1 mL/kg of 60 mg/mL solution i.p.) approximately 30 minutes prior to the first bronchoconstrictor administration. The trachea was cannulated and the animal ventilated using a constant volume respiratory pump (Harvard Rodent Ventilator model 683) at a rate of 60 breath/min and a tidal volume of 5 ml/kg. A jugular vein was cannulated for the administration of histamine, methacholine or maintenance anaesthetic (0.1 mL of pentobarbitone solution, 60 mg/mL, as required).
The animals were transferred to a Flexivent System (SCIREQ, Montreal, Canada) in order to measure airway resistance. The animals were ventilated (quasi-sinusoidal ventilation pattern) at 60 breaths/min at a tidal volume of 5 mL/kg. A positive end expiratory pressure of 2-3 cmH2O was applied. Respiratory resistance was measured using the Flexivent “snapshot” facility (1 second duration, 1 Hz frequency). Once stable baseline resistance value had been obtained the animals were given histamine or methacholine in ascending doses (0.5, 1, 2, 3 and 5 μg/kg, i.v.) at approximately 4-minute intervals via the jugular catheter. After each administration of bronchoconstrictor the peak resistance value was recorded. Guinea pigs were euthanized with approximately 1.0 mL pentobarbitone sodium (Euthatal) intravenously after the completion of the lung function measurements. Percentage bronchoprotection produced by a compound was calculated at each dose of brochoconstrictor as follows:
Where % change Rveh is the mean of the maximum percentage change in airway resistance in the vehicle treated group. The results reported were measured after 5 μg/kg histamine or methacholine and were expressed as percentage bronchoprotection (mean ±s.e.mean).

T1 sequence (P08588 whole entry): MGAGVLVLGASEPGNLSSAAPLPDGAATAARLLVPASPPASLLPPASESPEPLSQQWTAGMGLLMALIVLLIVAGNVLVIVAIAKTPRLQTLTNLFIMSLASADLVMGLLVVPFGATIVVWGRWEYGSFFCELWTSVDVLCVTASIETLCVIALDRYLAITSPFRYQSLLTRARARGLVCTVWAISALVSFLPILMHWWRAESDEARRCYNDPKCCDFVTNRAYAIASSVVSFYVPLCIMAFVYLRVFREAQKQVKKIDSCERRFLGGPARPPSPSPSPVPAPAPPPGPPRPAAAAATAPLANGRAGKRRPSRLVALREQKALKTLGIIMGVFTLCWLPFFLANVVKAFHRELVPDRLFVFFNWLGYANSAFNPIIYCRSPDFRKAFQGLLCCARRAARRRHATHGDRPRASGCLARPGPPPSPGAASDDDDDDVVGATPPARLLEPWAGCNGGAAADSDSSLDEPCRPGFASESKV

CCN(CC)CCN(CCNCCc1ccc(O)c2[nH]c(=O)sc12)C(=O)CCOCCc1cccc2ccccc12 [Compound A, N-[2-(Diethylamino)ethyl]-N-(2-{[2-(4-hydroxy-2-oxo-2,3-dihydro-1,3-benzothiazol-7-yl)ethyl]amino}ethyl)-3-[2-(1-naphthyl)ethoxy]propanamide dihydrobromide]
IC50 [1]: > 10 µM | IC50 [2]: 794 nM | inhibition of methacholine-induced bronchoconstriction ([3]; compound A 1 μg/kg intratracheal 2 h before): 15% | increase in resistance ([3]; compound A 1 μg/kg intratracheal): 1619±235% | inhibition of methacholine-induced bronchoconstriction ([3]; compound A 27 μg/kg intratracheal 2 h before): 82% | increase in resistance ([3]; compound A 27 μg/kg intratracheal): 347±71%
